Laboratory results from US20230131899A1, “INHIBITORS OF MICROBIALLY INDUCED AMYLOID” (Axial Therapeutics, Inc., priority 2020, published 2023).
Like-named read-outs stand apart in the source and are kept apart here.

Target: T1, E. coli CsgA (Escherichia coli, UniProt P28307)
T1 construct: made in house; host or cells: E. coli NEB 3016 slyD::kan, pET11d
Experiment: In vitro ThioflavinT assay of CsgA aggregation (CsgA ThT Assay)
Assay type: biochemical
Conditions: CsgA 2 μM, white plates; for remaining activity at 25 µM: compound 25 μM; for remaining activity at 100 µM: compound 100 μM
Outline: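 Purified C-terminal His-tagged CsgA, monomerised by desalting and 30-kDa filtration, at 2-20 μM with 20-40 μM ThT in 50 mM potassium phosphate pH 7.3, 1% DMSO, compounds 3.125-200 uM; room temperature, fluorescence (ex 438/em 495 nm) read every 15 min. Background-subtracted signal expressed as percent inhibition versus vehicle at 6-6.5 or 8-9 h, or as percent control AUC.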

[1] = read-out: CsgA ThT Assay (2 μM CsgA) % Control Bmax 25 μM, activity range, class symbol
[2] = read-out: CsgA ThT Assay (2 μM CsgA) % Control Bmax 25 μM, mean Bmax as percentage of DMSO control
[3] = read-out: CsgA ThT Assay (2 μM CsgA) % Control Bmax 100 μM, activity range, class symbol
[4] = read-out: CsgA ThT Assay (2 μM CsgA) % Control Bmax 100 μM, mean Bmax as percentage of DMSO control

T1 sequence (P28307 23-151): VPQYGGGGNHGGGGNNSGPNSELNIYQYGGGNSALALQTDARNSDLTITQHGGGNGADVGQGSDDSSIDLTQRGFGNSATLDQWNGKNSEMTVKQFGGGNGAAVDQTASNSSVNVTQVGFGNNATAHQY

SMILES	remaining activity at 25 µM [1] [%]	remaining activity at 25 µM [2] [%]	remaining activity at 100 µM [3] [%]	remaining activity at 100 µM [4] [%]
O=C(O)C1CN(Cc2ccccc2)c2c(-c3cccc(C(F)(F)F)c3)c(Cc3cccc4ccccc34)cc(=O)n21 (stereo not drawn) [Compound 187, 1-benzyl-7-(naphthalen-1-ylmethyl)-5-oxo-8-(3-(trifluoromethyl)phenyl)-1,2,3,5-tetrahydroimidazo[1,2-a]pyridine-3-carboxylic acid]	> 60	69	> 60	74
O=C(O)C1CN(CCCCCCCN2CC(C(=O)O)n3c2c(-c2cccc(C(F)(F)F)c2)c(Cc2cccc4ccccc24)c(Cl)c3=O)c2c(-c3cccc(C(F)(F)F)c3)c(Cc3cccc4ccccc34)c(Cl)c(=O)n21 (stereo not drawn) [Compound 188, 1,1′-(heptane-1,7-diyl)bis(6-chloro-7-(naphthalen-1-ylmethyl)-5-oxo-8-(3-(trifluoromethyl)phenyl)-1,2,3,5-tetrahydroimidazo[1,2-a]pyridine-3-carboxylic acid)]	31 to 60	33	11 to 31	14
COc1ccc(CN2CC(C(=O)O)n3c2c(-c2cccc(C(F)(F)F)c2)c(Cc2cccc4ccccc24)c(Cl)c3=O)cc1 (stereo not drawn) [Compound 192, 6-chloro-1-(4-methoxybenzyl)-7-(naphthalen-1-ylmethyl)-5-oxo-8-(3-(trifluoromethyl)phenyl)-1,2,3,5-tetrahydroimidazo[1,2-a]pyridine-3-carboxylic acid]	> 60	87	> 60	95
O=C(O)C1CN(CCCCCCN2CC(C(=O)O)n3c2c(-c2cccc(C(F)(F)F)c2)c(Cc2cccc4ccccc24)c(Cl)c3=O)c2c(-c3cccc(C(F)(F)F)c3)c(Cc3cccc4ccccc34)c(Cl)c(=O)n21 (stereo not drawn) [Compound 193, 1,1′-(hexane-1,6-diyl)bis(6-chloro-7-(naphthalen-1-ylmethyl)-5-oxo-8-(3-(trifluoromethyl)phenyl)-1,2,3,5-tetrahydroimidazo[1,2-a]pyridine-3-carboxylic acid)]	31 to 60	53	< 10	10
O=C(O)C1CN(Cc2ccccc2)c2c(-c3cccc(C(F)(F)F)c3)c(Cc3cccc4ccccc34)c(F)c(=O)n21 (stereo not drawn) [Compound 194, 1-benzyl-6-fluoro-7-(naphthalen-1-ylmethyl)-5-oxo-8-(3-(trifluoromethyl)phenyl)-1,2,3,5-tetrahydroimidazo[1,2-a]pyridine-3-carboxylic acid]	> 60	100	> 60	67
O=C(O)C1CN(Cc2cccc(O)c2)c2c(-c3cccc(C(F)(F)F)c3)c(Cc3cccc4ccccc34)c(Cl)c(=O)n21 (stereo not drawn) [Compound 196, 6-chloro-1-(3-hydroxybenzyl)-7-(naphthalen-1-ylmethyl)-5-oxo-8-(3-(trifluoromethyl)phenyl)-1,2,3,5-tetrahydroimidazo[1,2-a]pyridine-3-carboxylic acid]	> 60	67	–	–
O=C(O)C1CN(CCCO)c2c(-c3cccc(C(F)(F)F)c3)c(Cc3cccc4ccccc34)c(Cl)c(=O)n21 (stereo not drawn) [Compound 197, 6-chloro-1-(3-hydroxypropyl)-7-(naphthalen-1-ylmethyl)-5-oxo-8-(3-(trifluoromethyl)phenyl)-1,2,3,5-tetrahydroimidazo[1,2-a]pyridine-3-carboxylic acid]	> 60	86	> 60	64
O=C(O)C1CN(Cc2ccccc2)c2c(-c3cccc(Br)c3)c(Cc3cccc4ccccc34)c(Cl)c(=O)n21 (stereo not drawn) [Compound 198, 1-benzyl-8-(3-bromophenyl)-6-chloro-7-(naphthalen-1-ylmethyl)-5-oxo-1,2,3,5-tetrahydroimidazo[1,2-a]pyridine-3-carboxylic acid]	> 60	61	31 to 60	39
O=C(O)C1CN(CCCCCO)c2c(-c3cccc(C(F)(F)F)c3)c(Cc3cccc4ccccc34)c(Cl)c(=O)n21 (stereo not drawn) [Compound 199, 6-chloro-1-(5-hydroxypentyl)-7-(naphthalen-1-ylmethyl)-5-oxo-8-(3-(trifluoromethyl)phenyl)-1,2,3,5-tetrahydroimidazo[1,2-a]pyridine-3-carboxylic acid]	> 60	83	> 60	99
O=C(O)C1CN(Cc2cccc3ccccc23)c2c(-c3cccc(C(F)(F)F)c3)c(Cc3cccc4ccccc34)c(Cl)c(=O)n21 (stereo not drawn) [Compound 200, 6-chloro-1,7-bis(naphthalen-1-ylmethyl)-5-oxo-8-(3-(trifluoromethyl)phenyl)-1,2,3,5-tetrahydroimidazo[1,2-a]pyridine-3-carboxylic acid]	31 to 60	52	< 10	7
O=C(O)C1CN(Cc2ccc(-c3ccccc3)cc2)c2c(-c3cccc(C(F)(F)F)c3)c(Cc3cccc4ccccc34)c(Cl)c(=O)n21 (stereo not drawn) [Compound 202, 1-([1,1′-biphenyl]-4-ylmethyl)-6-chloro-7-(naphthalen-1-ylmethyl)-5-oxo-8-(3-(trifluoromethyl)phenyl)-1,2,3,5-tetrahydroimidazo[1,2-a]pyridine-3-carboxylic acid]	31 to 60	51	–	–
O=C(O)C1CN(CCC2CCCCC2)c2c(-c3cccc(C(F)(F)F)c3)c(Cc3cccc4ccccc34)c(Cl)c(=O)n21 (stereo not drawn) [Compound 207, 6-chloro-1-(2-cyclohexylethyl)-7-(naphthalen-1-ylmethyl)-5-oxo-8-(3-(trifluoromethyl)phenyl)-1,2,3,5-tetrahydroimidazo[1,2-a]pyridine-3-carboxylic acid]	31 to 60	51	11 to 31	20
CC(C)(C)c1ccc(Cc2c(-c3cccc(C(F)(F)F)c3)c3n(c(=O)c2Cl)C(C(=O)O)CN3Cc2ccccc2)cc1 (stereo not drawn) [Compound 216, 1-benzyl-7-(4-(tert-butyl)benzyl)-6-chloro-5-oxo-8-(3-(trifluoromethyl)phenyl)-1,2,3,5-tetrahydroimidazo[1,2-a]pyridine-3-carboxylic acid]	> 60	95	31 to 60	55
